Test results as given in US8901337B2, “Metal complexes having dual histone deacetylase inhibitory and DNA-binding activity” (Royal College of Surgeons in Ireland, priority 2009, dated 2014).
Where two headings read alike, the source gives them in different places.

Legend:
[1] = system: ovarian cancer cell line A2780 P; test: MTS in vitro cytotoxicity, A2780 P; type: cell-based, human
Experimental: (§1) Cells were cultured in the appropriate media. […] In order to retain resistance 1 μM cisplatin was added to the media of the A2780 cisR cells every third passage. A2780 cisR cells are resistant to cisplatin through a combination of decreased uptake, enhanced DNA repair/tolerance, and elevated reduced glutathione levels
(§2) All cells were kept in a humidified atmosphere with 5% CO2 at 37° C.; cells from confluent monolayers were removed from flasks by trypsin/EDTA solution and their viability determined by the trypan blue exclusion test.
(§3) Cell growth was determined by the [3-(4,5-dimethylthiazol-2-yl)-5-(3-carboxymethoxyphenyl)-2-(4-sulfophenyl)-2H-tetrazolium, inner salt, (MTS test, Promega, Southampton, UK), a colorimetric assay based on the ability of the viable cells to reduce a soluble yellow tetrazolium salt to blue formazan. 10,000 ovarian cancer cells or 3,000 fibroblast cells for example were seeded per well onto 96-well plates in 100 μl of the appropriate culture medium. 24 hr after sowing the cells, the media was removed and the cells were treated by adding 100 μl of the compound media solutions at the appropriate concentrations. cis-[Pt(NH3)2(malSAHA−2H)], cisplatin and cis-[Pt(NH3)2(mal)] were prepared freshly in cell culture media. […] The maximum percentage of dmso present in any well was less than 0.1% (v/v). cis-[Pt(NH3)2(malBel—2H)], belinostat and malbelinostat were freshly prepared in dimethyl formamide (DMF) and diluted in culture media prior to the MTS assay. The maximum percentage of DMF present in any well was 0.5% (v/v). A range of concentrations between 1 μM and 100 μM was used.
(§4) After 72 hr of treatment, 20 μl of the MTS reagent was added to each well and the plates incubated for 2 hr at 37° C. […] The percentages of surviving cells relative to untreated controls were determined.

[2] = system: non-tumorigenic human dermal fibroblast cell line (NHDF); test: MTS in vitro cytotoxicity, NHDF; type: cell-based
Experimental: In addition Normal Neonatal Human Dermal Fibroblast, NHDF, cells were cultured in Fibroblast Basal Medium (FBM®, Clonetics, Walkersville, USA) supplemented with hFGF-B, insulin, 5% FBS and gentamicin/amphotericin-B (FGM®-2 SingleQuots, Clonetics, Walkersville, USA).
as §2, §3, §4

[3] = system: cisplatin resistant ovarian cancer cell line A2780 cisR; test: MTS in vitro cytotoxicity, A2780 cisR; type: cell-based, human
Experimental: as §1, §2, §3, §4

[4] = system: breast cancer cell line (SKBR); test: MTS in vitro cytotoxicity, SKBR; type: cell-based; conditions: 72 hours, Table 1, read-out: IC50 values against SKBR
Experimental: as §2, §3, §4

[5] = system: liver cell lines (Hep-G2); test: MTS in vitro cytotoxicity, Hep-G2; type: cell-based; conditions: 72 hours, Table 1, read-out: IC50 values against Hep-G2
Experimental: as §2, §3, §4

[6] = system: SW480 (colon cancer cells); test: Cellular uptake of Pt (FAAS), SW480; type: cell-based; conditions: 10 μM, 72 hours treatment
Experimental: (§5) Cellular uptake of Pt compounds was measured in SKBR, SW480, A549, A2780P and CH1 cells. The cells were seeded in 60 mm tissue culture dishes with 10 mL of their respective medium and after overnight incubation, the cells were treated with the Pt complexes for 72 h at 10 μM concentration. The cell monolayers at the end of the incubation with the Pt complexes were washed (twice) with ice-cold phosphate buffered saline (PBS), trypsinized and harvested into cold (4° C.) PBS. Cell suspensions were centrifuged and the pellets were stored in PBS at −80° C. until assayed. Afterward, the pellets were digested by high pressure microwave mineralization and Pt content was determined by flameless atomic absorption spectrophotometry (FAAS). The results of cellular Pt uptake were corrected for adsorption effects. All experiments were made in triplicate.^17

[7] = system: SKBR (breast cancer cells); test: Cellular uptake of Pt (FAAS), SKBR; type: cell-based; conditions: 10 μM, 72 hours treatment
Experimental: as §5

CH1 (cancer cells) = test: Cellular uptake of Pt (FAAS), CH1; type: cell-based; conditions: 10 μM, 72 hours treatment
Experimental: as §5

[8] = system: DNA in SW480 cells (colon cancer); test: Pt binding to DNA in cultured cells (ICP-MS), SW480; type: cell-based; conditions: 43 μM of Pt complexes, 2 hours of cell treatment
Experimental: (§6) Pt DNA binding of Pt complexes was measured in SW480 cells (colon cancer) and CH1 cells (lymphoma) or alternatively A2780 P and A2780 cisR cells (sensitive and resistant to cisplatin respectively). The cells were seeded in 60 mm tissue culture dishes with 10 ml of their respective medium. After overnight incubation the medium was removed and replaced with 10 ml of the respective medium containing a platinum complex giving a final concentration of 43 or 40 μM depending on the experiment. The cells were incubated with a given Pt complex for either 2 or 4 h depending on the experiment. The cells were trypsinised and centrifuged. The supernantant was removed and the cells washed twice with 1×PBS and centrifuged. The pellet was re-suspended in DNA buffer to which Proteinase K (20 mg/mL) and 10% SDS were added. After a gentle shake and incubation at 45° C. for two hours, RNAse (100 mg/mL) was added and the cells were incubated at 37° C. overnight. The volume of supernatant was noted and an equal volume of phenol was added.
The resulting mixture was shook for 10 min, then centrifuged for 10 min at 10° C. The supernatant was transferred into a new centrifuge tube (15 ml) and the volume was noted. To this was added an equal volume of phenol and chloroform/isoamylalcohol (24:1). The resulting mixture was shook for 10 min, then centrifuged for 10 min at 10° C. (3000 RPM). The supernatant was transferred into a new centrifuge tube (15 mL) and the volume was noted. To this was added an equal volume of chloroform. The resulting mixture was shook for 10 min, then centrifuged for 10 min at 10° C. The supernatant was transferred into a new centrifuge tube (15 mL) and the volume was noted. To this was added a volume that is 1/10 of the supernatant of 3 M sodium acetate (Ph 5.2) and three times the volume of cold 100% isopropanol (from freezer). The solution was shook gently until the DNA is precipitated. […] The absorbance of the DNA by was measured by UV spectrophotometry at 260 nm and 280 nm and the concentration of DNA calculated. Platinum bound to DNA was determined by ICP-MS.

[9] = system: DNA in CH1 cells (lymphoma); test: Pt binding to DNA in cultured cells (ICP-MS), CH1; type: cell-based; conditions: 43 μM of Pt complexes, 2 hours of cell treatment
Experimental: as §6
The resulting mixture was shook for 10 min, then centrifuged for 10 min at 10° C. The supernatant was transferred into a new centrifuge tube (15 ml) and the volume was noted. […] The absorbance of the DNA by was measured by UV spectrophotometry at 260 nm and 280 nm and the concentration of DNA calculated. Platinum bound to DNA was determined by ICP-MS.

[10] = system: lung cancer cell line (A549); test: MTS in vitro cytotoxicity, A549; type: cell-based; conditions: 72 hours, Table 1, read-out: IC50 values against A549
Experimental: as §2, §3, §4

A549 (lung cancer cells) = test: Cellular uptake of Pt (FAAS), A549; type: cell-based; conditions: 10 μM, 72 hours treatment
Experimental: as §5

cell line (CH1) = test: MTS in vitro cytotoxicity, CH1; type: cell-based; conditions: 72 hours, Table 1, read-out: IC50 values against CH1
Experimental: as §2, §3, §4

[11] = system: A2780 P (ovarian cancer cells); test: Cellular uptake of Pt (FAAS), A2780 P; type: cell-based, human; conditions: 10 μM, 72 hours treatment
Experimental: as §5, with “The cells were seeded in 60 mm tissue culture dishes with 10 mL of their respective medium and after overnight incubation, the cells were treated with the Pt complexes for 72 h at 10 μM concentration.” left out

[12] = system: colon cancer cell line (SW480); test: MTS in vitro cytotoxicity, SW480; type: cell-based; conditions: 72 hours, Table 1, read-out: IC50 values against SW480
Experimental: as §2, §3, §4

HDAC1 = target: T1, HDAC1 (Homo sapiens, UniProt Q13547); test: Cayman HDAC1 Inhibitor Screening Assay Kit (fluorescence); type: biochemical
T1 construct: purchased Cayman Chemicals, Ann Arbor, USA
Experimental: The assay provides a fast two-step fluorescence-based method for measuring HDAC activity. Briefly, in the first step an acetylated lysine residue was incubated with HDAC1 and potential inhibitors. Deacetylation sensitises the substrate so that treatment with the HDAC developer in the second step releases a fluorescent product. The fluorescent reaction product was analysed using a plate reader with an excitation wavelengths of 350 nm and emission wavelengths of 460 nm.

T1 sequence (Q13547 whole entry): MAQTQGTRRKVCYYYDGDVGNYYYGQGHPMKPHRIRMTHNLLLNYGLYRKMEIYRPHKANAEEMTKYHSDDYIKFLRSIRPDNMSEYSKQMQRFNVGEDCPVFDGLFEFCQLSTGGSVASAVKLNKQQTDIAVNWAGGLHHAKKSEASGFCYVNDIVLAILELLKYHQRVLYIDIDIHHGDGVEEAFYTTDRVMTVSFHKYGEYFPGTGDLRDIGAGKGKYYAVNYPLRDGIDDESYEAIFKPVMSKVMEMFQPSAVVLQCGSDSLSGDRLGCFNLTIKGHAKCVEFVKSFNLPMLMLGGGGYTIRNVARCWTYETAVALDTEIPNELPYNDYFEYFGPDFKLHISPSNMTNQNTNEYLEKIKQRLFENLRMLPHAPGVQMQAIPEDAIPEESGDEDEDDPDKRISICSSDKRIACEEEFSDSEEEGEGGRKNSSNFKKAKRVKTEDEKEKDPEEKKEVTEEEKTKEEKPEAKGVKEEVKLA

O=C(/C=C/c1cccc(S(=O)(=O)Nc2ccccc2)c1)NO [belinostat, reference compound]
IC50 ([1]; Homo sapiens, A2780, 72 h, read-out: IC50 (μM) ± S.E.M. against A2780P): < 1 µM | IC50 ([2]; Homo sapiens, NHDF, 72 h, read-out: IC50 (μM) ± S.E.M. against NHDF): 3 ± 0.5 µM | IC50 ([3]; Homo sapiens, A2780cisR, 72 h, read-out: IC50 (μM) ± S.E.M. against A2780CisR): < 1 µM

[NH2][Pt]1([NH2])[O]C(=O)CC(=O)[O]1 [cis-[Pt(NH3)2(mal)]]
IC50 ([1]; 72 hours, MTS, Table 1, read-out: IC50 values against A2780 P): 16 ± 4.3 µM | IC50 [4]: 14.6 ± 2.5 µM | IC50 [5]: 44.5 ± 0.9 µM | Uptake of Pt complexes into SW480 [6]: 127.35 ± 27.4 pmol Pt/2 × 10^6 cell | Uptake of Pt complexes into SKBR [7]: 488.15 ± 38.4 pmol Pt/2 × 10^6 cell | Uptake of Pt complexes into CH1 (CH1 (cancer cells)): 282.6 ± 20.6 pmol Pt/2 × 10^6 cell | DNA-bound Pt in SW480 [8]: 1.25 · 10^−15 moles of Pt/μg of DNA | DNA-bound Pt in CH1 [9]: 1.76 · 10^−15 moles of Pt/μg of DNA | IC50 [10]: 6.3 µM | Uptake of Pt complexes into A549 (A549 (lung cancer cells)): 357.1 ± 47.1 pmol Pt/2 × 10^6 cell | IC50 ([2]; 72 hours, MTS, Table 1, read-out: IC50 values against NHDF): 48 ± 2.2 µM | IC50 (cell line (CH1)): 2500 ± 500 nM | Uptake of Pt complexes into A2780 P [11]: 220.95 ± 10.95 pmol Pt/2 × 10^6 cell | IC50 [12]: 23.2 ± 1.5 µM | IC50 ([3]; 72 hours, MTS, Table 1, read-out: IC50 values against A2780cisR): 81 ± 5.8 µM

O=C(/C=C/c1ccc(S(=O)(=O)Nc2ccc(CC(C(=O)O)C(=O)O)cc2)cc1)NO [malBel]
IC50 ([1]; 72 hours, MTS, Table 5, read-out: IC50 (μM) ± S.E.M. against A2780P): 45.8 µM | IC50 ([2]; 72 hours, MTS, Table 5, read-out: IC50 (μM) ± S.E.M. against NHDF): 28.9 µM | IC50 ([3]; 72 hours, MTS, Table 5, read-out: IC50 (μM) ± S.E.M. against A2780CisR): 32.1 µM

O=C(CCCCCCC(=O)Nc1ccc(CC(C(=O)O)C(=O)O)cc1)NO [malSAHA]
inhibition of HDAC1 (in words) (HDAC1): inhibit HDAC1 | IC50 (HDAC1; at 200 μM): 59.5 nM
